Common to all, as to format: functional
The subject of experiment [1] is Candida albicans. The experiment can be described thus: Antifungal activity against Candida albicans assessed as inhibition of fungal growth incubated for 24 hrs by CLSI based microbroth dilution method. For orientation: Dilution methods test growth across graded concentrations, often in twofold steps.
For another experiment, the system named is Aspergillus fumigatus. The experiment can be described thus: Antifungal activity against Aspergillus fumigatus assessed as inhibition of fungal growth incubated for 24 hrs by CLSI based microbroth dilution method.
Another experiment relates to Candida tropicalis. The experiment can be described thus: Antifungal activity against Candida tropicalis assessed as inhibition of fungal growth incubated for 24 hrs by CLSI based microbroth dilution method.
Another experiment has as its system Candida parapsilosis. Briefly: Antifungal activity against Candida parapsilosis ATCC 22019 assessed as inhibition of fungal growth incubated for 24 hrs by CLSI based microbroth dilution method. As to conditions: Lodderomyces parapsilosis.
Experiment [2] has as its system Candida albicans. Briefly: Antifungal activity against Candida albicans ATCC 90023 assessed as inhibition of fungal growth incubated for 24 hrs by CLSI based microbroth dilution method.

The values that follow come from ChEMBL document CHEMBL5506069, “A Unique Hybridization Route to Access Hydrazylnaphthalimidols as Novel Structural Scaffolds of Multitargeting Broad-Spectrum Antifungal Candidates” (J Med Chem, 2024).

Values after ≈ are worked out from the molar mass of the structure shown.

Consider `O=C1c2cccc3c(N/N=C/c4ccc[nH]4)ccc(c23)C(=O)N1CCO`, for which the MIC (as a rule, the smallest concentration in the dilution series that meets the test's criterion for growth inhibition) in the experiment with Candida albicans [1] came out at 183 µM (≈ 63.8 µg/mL); with Aspergillus fumigatus, 367 µM (≈ 128 µg/mL); in the experiment on Candida tropicalis, 367 µM (≈ 128 µg/mL); in the experiment with Candida parapsilosis, 46 µM (≈ 16 µg/mL); in the experiment with Candida albicans [2] it was 92 µM (≈ 32 µg/mL).

Take `O=C1c2cccc3c(N/N=C/c4cccs4)ccc(c23)C(=O)N1CCO`: the minimum inhibitory concentration (MIC) in the experiment with Candida albicans [1] amounted to 175 µM (≈ 63.9 µg/mL); in the experiment on Aspergillus fumigatus it was 175 µM (≈ 63.9 µg/mL); in the experiment with Candida tropicalis it was 351 µM (≈ 128 µg/mL); in the experiment on Candida parapsilosis, 175 µM (≈ 63.9 µg/mL); in the experiment with Candida albicans [2], 351 µM (≈ 128 µg/mL).

Regarding `O=C1c2cccc3c(N/N=C/c4cccnc4)ccc(c23)C(=O)N1CCO`, the minimum inhibitory concentration (MIC) with Candida albicans [1] turned out to be 711 µM (≈ 256 µg/mL); in the experiment on Aspergillus fumigatus, 355 µM (≈ 128 µg/mL); in the experiment with Candida tropicalis it was 355 µM (≈ 128 µg/mL); in the experiment with Candida parapsilosis it was 89 µM (≈ 32.1 µg/mL); with Candida albicans [2], 355 µM (≈ 128 µg/mL).

`C[n+]1ccc(/C=N/Nc2ccc3c4c(cccc24)C(=O)N(CCO)C3=O)cc1`: the minimal inhibitory concentration (MIC) came out at 16 µM with Candida albicans [1]; 127 µM with Aspergillus fumigatus; 255 µM in the experiment on Candida tropicalis; 64 µM in the experiment with Candida parapsilosis; 8 µM with Candida albicans [2].

As for `C=CCN1C(=O)c2cccc3c(N/N=C(\C)Cn4c([N+](=O)[O-])cnc4C)ccc(c23)C1=O`, the minimal inhibitory concentration (MIC) in the experiment with Candida albicans [1] was 1190 µM (≈ 515 µg/mL); with Aspergillus fumigatus, 595 µM (≈ 257 µg/mL); in the experiment on Candida tropicalis, 1190 µM (≈ 515 µg/mL); in the experiment with Candida parapsilosis it was 1190 µM (≈ 515 µg/mL); in the experiment with Candida albicans [2], 1190 µM (≈ 515 µg/mL).

As to `CCCCc1nc(Cl)c(/C=N/Nc2ccc3c4c(cccc24)C(=O)N(CCO)C3=O)[nH]1`, the MIC in the experiment on Candida albicans [1] stood at 36 µM (≈ 15.8 µg/mL); in the experiment on Aspergillus fumigatus, 73 µM (≈ 32.1 µg/mL); with Candida tropicalis it was 73 µM (≈ 32.1 µg/mL); with Candida parapsilosis it was 291 µM (≈ 128 µg/mL); in the experiment on Candida albicans [2] it was 18 µM (≈ 7.92 µg/mL).

Take `C#CCN1C(=O)c2cccc3c(N/N=C(\C)Cn4c([N+](=O)[O-])cnc4C)ccc(c23)C1=O`: the minimum inhibitory concentration (MIC) in the experiment with Candida albicans [1] was 1180 µM (≈ 510 µg/mL); with Aspergillus fumigatus, 296 µM (≈ 127 µg/mL); with Candida tropicalis, 1180 µM (≈ 510 µg/mL); in the experiment on Candida parapsilosis, 1180 µM (≈ 510 µg/mL); with Candida albicans [2], 1180 µM (≈ 510 µg/mL).

With `C#CCn1c(CCCC)nc(Cl)c1/C=N/Nc1ccc2c3c(cccc13)C(=O)N(CCO)C2=O`, the MIC with Candida albicans [1] came to 67 µM (≈ 32 µg/mL); with Aspergillus fumigatus it was 8 µM (≈ 3.82 µg/mL); in the experiment on Candida tropicalis, 2 µM (≈ 0.956 µg/mL); in the experiment on Candida parapsilosis, 67 µM (≈ 32 µg/mL); in the experiment on Candida albicans [2], 17 µM (≈ 8.13 µg/mL).

On to `CCCCc1nc(Cl)c(/C=N/Nc2ccc3c4c(cccc24)C(=O)N(CCO)C3=O)n1CC1CC1`, for which the MIC with Candida albicans [1] was 65 µM (≈ 32.1 µg/mL); in the experiment with Aspergillus fumigatus, 8 µM (≈ 3.95 µg/mL); in the experiment on Candida tropicalis, 32 µM (≈ 15.8 µg/mL); in the experiment with Candida parapsilosis, 65 µM (≈ 32.1 µg/mL); in the experiment with Candida albicans [2], 8 µM (≈ 3.95 µg/mL).

Turning to `C/C(Cn1c([N+](=O)[O-])cnc1C)=N\Nc1ccc2c3c(cccc13)C(=O)N(c1ccc(F)c(Cl)c1)C2=O`, the MIC amounted to 491 µM (≈ 256 µg/mL) with Candida albicans [1]; 983 µM (≈ 512 µg/mL) in the experiment on Aspergillus fumigatus; 246 µM (≈ 128 µg/mL) with Candida tropicalis; 246 µM (≈ 128 µg/mL) with Candida parapsilosis; 983 µM (≈ 512 µg/mL) with Candida albicans [2].

`NNc1ccc2c3c(cccc13)C(=O)N(CCO)C2=O`: the MIC with Candida albicans [1] amounted to 118 µM (≈ 32 µg/mL); with Aspergillus fumigatus, 118 µM (≈ 32 µg/mL); with Candida tropicalis, 118 µM (≈ 32 µg/mL); in the experiment with Candida parapsilosis it was 236 µM (≈ 64 µg/mL); with Candida albicans [2] it was 118 µM (≈ 32 µg/mL).

As to `CCCCCCN1C(=O)c2cccc3c(N/N=C(\C)Cn4c([N+](=O)[O-])cnc4C)ccc(c23)C1=O`, the MIC in the experiment with Candida albicans [1], with Aspergillus fumigatus, in the experiment with Candida tropicalis, in the experiment with Candida parapsilosis and in the experiment on Candida albicans [2] was 1070 µM (≈ 512 µg/mL) throughout.

On to `O=C1c2cccc3c(N/N=C/c4ccco4)ccc(c23)C(=O)N1CCO`, for which the minimum inhibitory concentration (MIC) worked out at 87 µM (≈ 30.4 µg/mL) in the experiment on Candida albicans [1]; 87 µM (≈ 30.4 µg/mL) in the experiment with Aspergillus fumigatus; 87 µM (≈ 30.4 µg/mL) in the experiment with Candida tropicalis; 351 µM (≈ 123 µg/mL) with Candida parapsilosis; 175 µM (≈ 61.1 µg/mL) in the experiment on Candida albicans [2].

In the case of `CCCCc1nc(Cl)c(/C=N/Nc2ccc3c4c(cccc24)C(=O)N(CCO)C3=O)n1CCC`, the MIC is 133 µM (≈ 64.1 µg/mL) in the experiment on Candida albicans [1]; 33 µM (≈ 15.9 µg/mL) in the experiment with Aspergillus fumigatus; 67 µM (≈ 32.3 µg/mL) in the experiment with Candida tropicalis; 266 µM (≈ 128 µg/mL) in the experiment with Candida parapsilosis; 67 µM (≈ 32.3 µg/mL) in the experiment with Candida albicans [2].

Consider `CCCCCn1c(CCCC)nc(Cl)c1/C=N/Nc1ccc2c3c(cccc13)C(=O)N(CCO)C2=O`, for which the minimum inhibitory concentration (MIC) in the experiment with Candida albicans [1] is 251 µM (≈ 128 µg/mL); in the experiment on Aspergillus fumigatus it was 63 µM (≈ 32.1 µg/mL); in the experiment on Candida tropicalis, 16 µM (≈ 8.16 µg/mL); in the experiment on Candida parapsilosis, 251 µM (≈ 128 µg/mL); with Candida albicans [2], 126 µM (≈ 64.3 µg/mL).

As to `CN1C(=O)c2cccc3c(N/N=C/c4ccc([N+](=O)[O-])o4)ccc(c23)C1=O`, the MIC was 87 µM (≈ 31.7 µg/mL) in the experiment with Candida albicans [1]; 87 µM (≈ 31.7 µg/mL) in the experiment with Aspergillus fumigatus; 87 µM (≈ 31.7 µg/mL) in the experiment on Candida tropicalis; 350 µM (≈ 128 µg/mL) in the experiment on Candida parapsilosis; 175 µM (≈ 63.8 µg/mL) in the experiment with Candida albicans [2].

With `CCCCc1nc(Cl)c(/C=N/Nc2ccc3c4c(cccc24)C(=O)N(CCO)C3=O)n1CCN1CCOCC1`, the MIC with Candida albicans [1] came to 58 µM (≈ 32.1 µg/mL); in the experiment with Aspergillus fumigatus, 29 µM (≈ 16 µg/mL); with Candida tropicalis it was 29 µM (≈ 16 µg/mL); in the experiment on Candida parapsilosis, 116 µM (≈ 64.2 µg/mL); in the experiment with Candida albicans [2], 4 µM (≈ 2.21 µg/mL).

For `O=C1c2cccc3c(N/N=C/c4nccs4)ccc(c23)C(=O)N1CCO`, the MIC was 699 µM (≈ 256 µg/mL) with Candida albicans [1]; 350 µM (≈ 128 µg/mL) in the experiment with Aspergillus fumigatus; 175 µM (≈ 64.1 µg/mL) in the experiment with Candida tropicalis; 175 µM (≈ 64.1 µg/mL) with Candida parapsilosis; 350 µM (≈ 128 µg/mL) in the experiment with Candida albicans [2].

Turning to `CCCCc1nc(Cl)c(/C=N/Nc2ccc3c4c(cccc24)C(=O)N(CCO)C3=O)n1Cc1ccc(F)cc1`, the MIC amounted to 58 µM (≈ 31.8 µg/mL) with Candida albicans [1]; 117 µM (≈ 64.1 µg/mL) with Aspergillus fumigatus; 58 µM (≈ 31.8 µg/mL) in the experiment with Candida tropicalis; 58 µM (≈ 31.8 µg/mL) in the experiment on Candida parapsilosis; 4 µM (≈ 2.19 µg/mL) in the experiment with Candida albicans [2].

With `CCCCc1nc(Cl)c(/C=N/Nc2ccc3c4c(cccc24)C(=O)N(CCO)C3=O)n1CC(=O)OCC`, the minimum inhibitory concentration (MIC) in the experiment on Candida albicans [1] came to 30 µM (≈ 15.8 µg/mL); in the experiment on Aspergillus fumigatus, 61 µM (≈ 32.1 µg/mL); in the experiment on Candida tropicalis, 2 µM (≈ 1.05 µg/mL); in the experiment on Candida parapsilosis it was 244 µM (≈ 128 µg/mL); in the experiment with Candida albicans [2], 61 µM (≈ 32.1 µg/mL).

Take `O=C1c2cccc3c(N/N=C/c4ccncc4)ccc(c23)C(=O)N1CCO`: the minimal inhibitory concentration (MIC) worked out at 355 µM (≈ 128 µg/mL) in the experiment with Candida albicans [1]; 355 µM (≈ 128 µg/mL) with Aspergillus fumigatus; 355 µM (≈ 128 µg/mL) in the experiment with Candida tropicalis; 355 µM (≈ 128 µg/mL) with Candida parapsilosis; 711 µM (≈ 256 µg/mL) in the experiment on Candida albicans [2].

`CCCCc1nc(Cl)c(/C=N/Nc2ccc3c4c(cccc24)C(=O)N(CCO)C3=O)n1Cc1cccc(F)c1`: the MIC in the experiment with Candida albicans [1] stood at 117 µM (≈ 64.1 µg/mL); in the experiment with Aspergillus fumigatus, 58 µM (≈ 31.8 µg/mL); in the experiment with Candida tropicalis it was 58 µM (≈ 31.8 µg/mL); in the experiment on Candida parapsilosis it was 29 µM (≈ 15.9 µg/mL); in the experiment on Candida albicans [2], 7 µM (≈ 3.84 µg/mL).

`NN1C(=O)c2cccc3c(N/N=C/c4ccc([N+](=O)[O-])o4)ccc(c23)C1=O`: the MIC with Candida albicans [1] is 21 µM (≈ 7.67 µg/mL); in the experiment on Aspergillus fumigatus, 10 µM (≈ 3.65 µg/mL); with Candida tropicalis, 5 µM (≈ 1.83 µg/mL); in the experiment on Candida parapsilosis, 21 µM (≈ 7.67 µg/mL); in the experiment with Candida albicans [2] it was 5 µM (≈ 1.83 µg/mL).

For the compound `C=CCn1c(CCCC)nc(Cl)c1/C=N/Nc1ccc2c3c(cccc13)C(=O)N(CCO)C2=O`, the minimum inhibitory concentration (MIC) in the experiment on Candida albicans [1] was 67 µM (≈ 32.2 µg/mL); in the experiment with Aspergillus fumigatus, 17 µM (≈ 8.16 µg/mL); in the experiment with Candida tropicalis, 2 µM (≈ 0.96 µg/mL); in the experiment on Candida parapsilosis, 134 µM (≈ 64.3 µg/mL); in the experiment with Candida albicans [2] it was 33 µM (≈ 15.8 µg/mL).

With `CCCCc1nc(Cl)c(/C=N/Nc2ccc3c4c(cccc24)C(=O)N(CCO)C3=O)n1CCO`, the MIC in the experiment on Candida albicans [1] amounted to 33 µM (≈ 16 µg/mL); with Aspergillus fumigatus, 66 µM (≈ 31.9 µg/mL); in the experiment on Candida tropicalis it was 17 µM (≈ 8.23 µg/mL); in the experiment on Candida parapsilosis, 33 µM (≈ 16 µg/mL); in the experiment with Candida albicans [2], 17 µM (≈ 8.23 µg/mL).

With `CCCCCCCN1C(=O)c2cccc3c(N/N=C(\C)Cn4c([N+](=O)[O-])cnc4C)ccc(c23)C1=O`, the MIC with Candida albicans [1], in the experiment with Aspergillus fumigatus, in the experiment with Candida tropicalis, in the experiment on Candida parapsilosis and with Candida albicans [2] was 1040 µM (≈ 512 µg/mL) each time.

`COc1ccc(N2C(=O)c3cccc4c(N/N=C(\C)Cn5c([N+](=O)[O-])cnc5C)ccc(c34)C2=O)cc1`: the MIC in the experiment with Candida albicans [1] was found to be 514 µM (≈ 256 µg/mL); in the experiment on Aspergillus fumigatus it was 1030 µM (≈ 512 µg/mL); with Candida tropicalis, 514 µM (≈ 256 µg/mL); with Candida parapsilosis, 257 µM (≈ 128 µg/mL); in the experiment with Candida albicans [2], 1030 µM (≈ 512 µg/mL).
